Source: ChEMBL document CHEMBL3797029, “Purinylpyridinylamino-based DFG-in/αC-helix-out B-Raf inhibitors: Applying mutant versus wild-type B-Raf selectivity indices for compound profiling” (Bioorg Med Chem, 2016)

Experiments:
[1] = target: Insulin receptor (Homo sapiens) (UniProt P06213); assay: Inhibition of partial length wild type human INSR expressed in mammalian system assessed as enzyme activity at 1 uM relative to control; design: scale not given: the % may be the effect or the level left
Insulin receptor (Homo sapiens), sequence (P06213 28-758 limits assumed): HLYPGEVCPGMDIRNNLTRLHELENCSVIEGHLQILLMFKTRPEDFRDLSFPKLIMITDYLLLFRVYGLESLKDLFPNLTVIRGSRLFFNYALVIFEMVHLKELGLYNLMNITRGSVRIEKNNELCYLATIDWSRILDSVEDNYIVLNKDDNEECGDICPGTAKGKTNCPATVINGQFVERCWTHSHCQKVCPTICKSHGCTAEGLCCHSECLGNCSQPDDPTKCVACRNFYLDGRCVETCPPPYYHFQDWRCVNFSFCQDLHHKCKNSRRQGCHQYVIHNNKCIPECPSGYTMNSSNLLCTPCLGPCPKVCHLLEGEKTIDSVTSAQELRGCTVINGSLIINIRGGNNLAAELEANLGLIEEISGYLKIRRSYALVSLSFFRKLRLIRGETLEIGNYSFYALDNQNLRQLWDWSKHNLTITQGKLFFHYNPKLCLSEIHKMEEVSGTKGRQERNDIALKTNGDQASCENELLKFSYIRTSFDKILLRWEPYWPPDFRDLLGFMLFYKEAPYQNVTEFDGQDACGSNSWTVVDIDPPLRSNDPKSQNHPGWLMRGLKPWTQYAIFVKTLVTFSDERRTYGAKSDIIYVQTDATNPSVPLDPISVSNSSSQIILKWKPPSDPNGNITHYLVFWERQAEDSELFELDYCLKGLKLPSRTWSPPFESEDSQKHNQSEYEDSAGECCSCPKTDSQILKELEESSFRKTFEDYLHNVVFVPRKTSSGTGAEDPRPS
Insulin receptor (Homo sapiens), sequence (P06213 763-1382 limits assumed): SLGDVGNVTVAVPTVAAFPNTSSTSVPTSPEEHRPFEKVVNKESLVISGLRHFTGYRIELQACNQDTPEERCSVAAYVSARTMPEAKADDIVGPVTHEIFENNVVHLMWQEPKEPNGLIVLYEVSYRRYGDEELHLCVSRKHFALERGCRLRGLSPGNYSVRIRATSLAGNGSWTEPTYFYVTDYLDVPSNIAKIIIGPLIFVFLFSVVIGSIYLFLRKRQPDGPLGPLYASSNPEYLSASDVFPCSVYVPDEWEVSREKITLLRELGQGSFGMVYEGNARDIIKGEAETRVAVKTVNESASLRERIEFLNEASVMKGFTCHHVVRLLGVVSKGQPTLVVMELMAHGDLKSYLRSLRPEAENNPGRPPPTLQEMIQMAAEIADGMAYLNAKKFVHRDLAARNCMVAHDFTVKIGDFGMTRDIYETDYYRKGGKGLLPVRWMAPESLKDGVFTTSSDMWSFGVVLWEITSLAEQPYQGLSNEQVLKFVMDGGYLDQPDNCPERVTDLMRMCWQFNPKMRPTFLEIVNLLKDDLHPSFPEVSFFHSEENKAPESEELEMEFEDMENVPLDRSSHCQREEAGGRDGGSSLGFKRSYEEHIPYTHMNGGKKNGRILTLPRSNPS

[2] = target: High affinity nerve growth factor receptor (Homo sapiens) (UniProt P04629); assay: Inhibition of partial length wild type human TRKA expressed in mammalian system assessed as enzyme activity at 1 uM relative to control; design: scale not given: the % may be the effect or the level left
[3] = target: Serine/threonine-protein kinase TBK1 (Homo sapiens) (UniProt Q9UHD2); assay: Inhibition of full length wild type human TBK1 expressed in mammalian system assessed as enzyme activity at 1 uM relative to control; design: scale not given: the % may be the effect or the level left
Serine/threonine-protein kinase TBK1 (Homo sapiens), sequence (Q9UHD2 whole entry): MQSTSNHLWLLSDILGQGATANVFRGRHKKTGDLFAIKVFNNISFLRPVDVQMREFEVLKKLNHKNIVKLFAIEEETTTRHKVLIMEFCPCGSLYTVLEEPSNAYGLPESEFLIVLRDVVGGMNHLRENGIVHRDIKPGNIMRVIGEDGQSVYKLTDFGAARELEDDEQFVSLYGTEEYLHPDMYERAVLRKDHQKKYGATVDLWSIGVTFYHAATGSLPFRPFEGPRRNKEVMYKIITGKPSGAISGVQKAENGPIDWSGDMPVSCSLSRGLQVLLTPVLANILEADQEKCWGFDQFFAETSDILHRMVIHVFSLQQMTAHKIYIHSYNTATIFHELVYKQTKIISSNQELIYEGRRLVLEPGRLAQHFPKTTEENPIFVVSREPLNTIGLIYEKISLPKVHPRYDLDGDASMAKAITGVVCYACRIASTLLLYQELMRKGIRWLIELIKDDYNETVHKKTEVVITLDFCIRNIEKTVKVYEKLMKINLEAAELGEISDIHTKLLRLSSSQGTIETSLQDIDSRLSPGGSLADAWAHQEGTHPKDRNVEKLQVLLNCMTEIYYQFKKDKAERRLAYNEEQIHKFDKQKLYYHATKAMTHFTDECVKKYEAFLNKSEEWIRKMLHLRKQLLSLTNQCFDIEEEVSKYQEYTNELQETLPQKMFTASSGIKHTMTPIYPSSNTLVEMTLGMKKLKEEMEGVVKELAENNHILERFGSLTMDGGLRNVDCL

[4] = target: Serine/threonine-protein kinase PAK 2 (Homo sapiens) (UniProt Q13177); assay: Inhibition of partial length wild type human PAK2 expressed in bacterial system assessed as enzyme activity at 1 uM relative to control; design: scale not given: the % may be the effect or the level left
Serine/threonine-protein kinase PAK 2 (Homo sapiens), sequence (Q13177 whole entry): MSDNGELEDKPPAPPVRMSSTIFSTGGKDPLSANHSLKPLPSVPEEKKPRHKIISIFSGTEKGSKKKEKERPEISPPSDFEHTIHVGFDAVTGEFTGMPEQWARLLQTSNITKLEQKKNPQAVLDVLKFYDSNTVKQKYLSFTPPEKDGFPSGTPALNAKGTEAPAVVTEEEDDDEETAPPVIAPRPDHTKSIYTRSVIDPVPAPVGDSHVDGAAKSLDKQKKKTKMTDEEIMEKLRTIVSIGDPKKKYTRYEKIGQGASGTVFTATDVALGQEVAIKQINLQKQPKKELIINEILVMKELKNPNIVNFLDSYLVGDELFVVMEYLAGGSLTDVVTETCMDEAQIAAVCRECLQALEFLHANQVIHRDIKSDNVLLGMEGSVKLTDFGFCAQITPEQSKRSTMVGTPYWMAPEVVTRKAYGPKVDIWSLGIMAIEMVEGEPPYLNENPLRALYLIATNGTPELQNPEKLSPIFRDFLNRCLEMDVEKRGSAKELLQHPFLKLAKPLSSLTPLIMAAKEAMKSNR

[5] = target: Serine/threonine-protein kinase B-raf (Homo sapiens, UniProt P15056, V600E); assay: Inhibition of B-Raf V600E mutant in human A375 cells assessed as ERK phosphorylation preincubated for 1 hr by Western blot method; assay type: cell-based, A-375
Serine/threonine-protein kinase B-raf, sequence (P15056 2-766 V600E limits assumed): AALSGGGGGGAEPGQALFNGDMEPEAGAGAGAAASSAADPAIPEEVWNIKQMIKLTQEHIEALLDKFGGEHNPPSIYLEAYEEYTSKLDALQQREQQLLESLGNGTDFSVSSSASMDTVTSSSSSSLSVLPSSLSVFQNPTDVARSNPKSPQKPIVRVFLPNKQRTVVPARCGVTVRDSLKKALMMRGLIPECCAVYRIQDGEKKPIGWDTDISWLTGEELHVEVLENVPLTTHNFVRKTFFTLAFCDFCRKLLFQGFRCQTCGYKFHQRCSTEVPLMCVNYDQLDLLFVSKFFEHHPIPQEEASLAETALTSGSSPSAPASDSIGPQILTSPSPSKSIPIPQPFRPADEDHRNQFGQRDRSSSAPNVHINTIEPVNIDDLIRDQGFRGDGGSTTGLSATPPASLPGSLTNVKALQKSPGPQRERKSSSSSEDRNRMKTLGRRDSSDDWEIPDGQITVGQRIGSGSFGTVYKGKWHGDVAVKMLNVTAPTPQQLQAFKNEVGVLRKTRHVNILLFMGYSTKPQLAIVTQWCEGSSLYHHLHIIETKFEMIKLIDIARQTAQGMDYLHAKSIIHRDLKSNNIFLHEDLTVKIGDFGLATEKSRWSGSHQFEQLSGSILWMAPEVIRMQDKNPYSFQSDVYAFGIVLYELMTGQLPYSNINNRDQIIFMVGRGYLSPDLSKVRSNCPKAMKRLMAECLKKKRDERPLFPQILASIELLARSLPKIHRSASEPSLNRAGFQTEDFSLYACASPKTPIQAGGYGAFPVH

[6] = target: Proto-oncogene tyrosine-protein kinase Src (Homo sapiens) (UniProt P12931); assay: Inhibition of partial length wild type human SRC expressed in bacterial system assessed as enzyme activity at 1 uM relative to control; design: scale not given: the % may be the effect or the level left
Proto-oncogene tyrosine-protein kinase Src (Homo sapiens), sequence (P12931 2-536 limits assumed): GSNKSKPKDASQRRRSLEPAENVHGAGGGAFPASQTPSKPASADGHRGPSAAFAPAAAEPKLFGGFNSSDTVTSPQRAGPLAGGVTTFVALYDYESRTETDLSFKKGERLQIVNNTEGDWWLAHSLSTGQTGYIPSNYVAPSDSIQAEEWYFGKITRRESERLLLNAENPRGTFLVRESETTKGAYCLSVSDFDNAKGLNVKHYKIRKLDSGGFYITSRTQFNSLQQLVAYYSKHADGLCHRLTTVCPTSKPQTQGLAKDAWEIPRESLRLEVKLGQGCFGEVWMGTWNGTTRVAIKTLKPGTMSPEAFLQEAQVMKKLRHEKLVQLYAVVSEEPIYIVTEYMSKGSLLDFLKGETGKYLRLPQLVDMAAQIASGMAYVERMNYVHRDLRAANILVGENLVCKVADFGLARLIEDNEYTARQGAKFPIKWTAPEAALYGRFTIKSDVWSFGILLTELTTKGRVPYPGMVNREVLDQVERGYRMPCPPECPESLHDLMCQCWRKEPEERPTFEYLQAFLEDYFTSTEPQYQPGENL

[7] = target: Dual specificity mitogen-activated protein kinase kinase 5 (Homo sapiens) (UniProt Q13163); assay: Inhibition of partial length wild type human MEK5 expressed in mammalian system assessed as enzyme activity at 1 uM relative to control; design: scale not given: the % may be the effect or the level left
Dual specificity mitogen-activated protein kinase kinase 5 (Homo sapiens), sequence (Q13163 whole entry): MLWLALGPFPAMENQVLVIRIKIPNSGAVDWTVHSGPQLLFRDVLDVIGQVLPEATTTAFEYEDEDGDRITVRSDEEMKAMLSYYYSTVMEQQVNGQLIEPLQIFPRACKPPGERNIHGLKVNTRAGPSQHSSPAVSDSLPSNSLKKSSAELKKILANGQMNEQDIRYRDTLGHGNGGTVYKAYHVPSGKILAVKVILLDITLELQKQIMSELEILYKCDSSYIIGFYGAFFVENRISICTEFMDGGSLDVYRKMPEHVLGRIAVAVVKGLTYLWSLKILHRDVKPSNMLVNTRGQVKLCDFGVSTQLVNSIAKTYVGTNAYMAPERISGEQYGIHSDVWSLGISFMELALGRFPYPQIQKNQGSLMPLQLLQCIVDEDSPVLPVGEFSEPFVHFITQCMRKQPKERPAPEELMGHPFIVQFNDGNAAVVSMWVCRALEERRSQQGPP

[8] = target: Cyclin-dependent kinase 8 (Homo sapiens) (UniProt P49336); assay: Inhibition of partial length wild type human CDK8 expressed in bacterial system assessed as enzyme activity at 1 uM relative to control; design: scale not given: the % may be the effect or the level left
Cyclin-dependent kinase 8 (Homo sapiens), sequence (P49336 whole entry): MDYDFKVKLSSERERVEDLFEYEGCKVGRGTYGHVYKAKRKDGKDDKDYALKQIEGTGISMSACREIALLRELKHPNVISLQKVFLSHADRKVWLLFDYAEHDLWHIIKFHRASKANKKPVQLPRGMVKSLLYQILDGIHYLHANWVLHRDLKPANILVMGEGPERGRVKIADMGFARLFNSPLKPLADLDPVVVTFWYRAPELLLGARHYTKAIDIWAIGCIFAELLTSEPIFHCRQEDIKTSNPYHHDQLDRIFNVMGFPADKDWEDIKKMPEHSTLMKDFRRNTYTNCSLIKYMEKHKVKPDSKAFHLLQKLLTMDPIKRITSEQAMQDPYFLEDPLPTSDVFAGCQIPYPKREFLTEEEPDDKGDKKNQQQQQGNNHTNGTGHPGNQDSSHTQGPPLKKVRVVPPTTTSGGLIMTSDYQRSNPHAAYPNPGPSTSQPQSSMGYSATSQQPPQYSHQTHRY

Activity [1]: 100%
Activity [2]: 100%
Activity [3]: 100%
Activity [4]: 94%
IC50 [5]: 0.054 µM
Activity [6]: 100%
Activity [7]: 0.9%
Activity [8]: 85%
Structure (SMILES): CN(C)S(=O)(=O)Nc1ccc(F)c(Nc2ncccc2-c2ncnc3[nH]cnc23)c1F
